Where two headings read alike, the source gives them in different places.
Experiments:
[1] = parameters: method as in Shell et al, 2008; settings: non-clinical; ref Shell et al, 2008; cited from earlier work
[2] = Urinary excretion after oral TAK-285; type: in vivo, human (Japanese patients); settings: up to 12- or 24-h postdose following single or multiple dosing
Procedure: (§1) In the dose escalation cohort, plasma samples for PK analysis were collected at predose and up to 72 h after single dose administration and on day 21 after repeated administration of TAK-285. Urine samples were also collected up to 24-h postdose. In the repeated administration cohort, plasma samples for PK analysis were collected at predose and up to 12-h postdose on days 1 and 28. Urine samples were also collected up to 12-h postdose each day. Concentrations of TAK-285 and M-I in plasma and urine were determined using validated liquid chromatography tandem mass spectrometry (LC-MS/MS) methods. The plasma and urine samples were treated by liquid–liquid extraction and subjected to LC-MS/MS equipped with a reversed-phase column. The lower limit of quantification for both TAK-285 and M-I was 0.2 ng ml^–1 in plasma and 2 ng ml^–1 in urine when 50 μl of the plasma sample and 55 μl of the urine sample (containing 5 μl of Tween 80 solution) were analysed. Tween 80 solution was added to the urine sample to prevent the adsorption of analytes onto the sample containers. The accuracy of the plasma assay (percentage deviation from nominal) ranged from −10.8 to 11.0% for TAK-285, and from −14.0 to 13.8% for M-I. […] Pharmacokinetic parameters of TAK-285 and M-I were estimated for each patient using noncompartmental methods with Phoenix WinNonlin Version 6.1 (Pharsight, Mountain View, CA, USA).

[3] = system: EGFR; settings: biochemical; ref Aertgeerts et al, 2011; read-out: 50% inhibition concentration, EGFR phosphorylation; cited from earlier work
[4] = rodent and primate; non-clinical studies; cited from earlier work
[5] = Plasma pharmacokinetics after oral TAK-285 (LC-MS/MS, noncompartmental); type: in vivo, human (Japanese patients); settings: for Cmax / half-life / Tmax / AUC(0-inf) / AUC: human, plasma, oral; for Tmax: median (range); for AUC: read-out: AUC0–tau
Procedure: as §1

[6] = system: HER2; settings: biochemical; ref Aertgeerts et al, 2011; read-out: 50% inhibition concentration, HER2 phosphorylation; cited from earlier work
[7] = system: solid tumours; assay: Antitumour activity by RECIST in patients; type: in vivo, human (Japanese patients)
Procedure: The primary study endpoints were to determine the MTD as well as PK profiles of TAK-285 and its metabolite, M-I (data on file, Takeda Pharmaceutical Company Limited). The secondary endpoints were objective response rate (complete response (CR) and partial response (PR)), disease control rate (CR, PR and stable disease (SD), for at least 12 weeks), and time to tumour progression, defined as the time from the first dose of TAK-285 until disease progression or death. Tumour response was assessed every 4 weeks by RECIST version 1.0 ([Therasse et al, 2000]).

[8] = system: HER2- or EGFR-overexpressing human tumour xenografts such as BT-474, 4-1 ST and A431; parameters: method as in Iwahara et al, 2008; settings: orally administered; ref Iwahara et al, 2008; cited from earlier work
[9] = system: circulating tumour cells; assay: Circulating tumour cell enumeration (CellSearch); type: in vivo, human (Japanese patients)
Procedure: At screening and on day 15 after the start of repeated administration, 20 ml of peripheral blood was obtained and divided into two 10 ml exclusive use containers (CellSave tubes) filled with 300 μl of preservative solution (4.6% Na-ethylenediaminetetraacetate, 36% cell preservative, 0.36% polyethylene glycol and 0.4% inert ingredients). The samples were stored at room temperature and processed within 72 h after sampling. The CellSearch System (Veridex LLC, Raritan, NJ, USA) was used for the isolation and enumeration of circulating tumour cells (CTCs), which were defined as nucleated cells lacking cluster of differentiation 45 and expressing cytokeratin.

[10] = 50 mg, single dosing, 50 mg b.i.d., dose escalation cohort, mean (s.d.)
[11] = 50 mg, single dosing, 50 mg q.d., dose escalation cohort, mean (s.d.)
[12] = 100 mg, single dosing, 100 mg b.i.d., dose escalation cohort, mean (s.d.)
[13] = 200 mg, single dosing, 200 mg b.i.d., dose escalation cohort, mean (s.d.)
[14] = 300 mg, single dosing, 300 mg b.i.d., repeated administration cohort, mean (s.d.)
[15] = multiple versus single dosing, across doses

CC(C)(O)CC(=O)NCCn1ccc2ncnc(Nc3ccc(Oc4cccc(C(F)(F)F)c4)c(Cl)c3)c21 [TAK-285]
cardiac risks [1]: potentially no exhibition of elevated cardiac risks
tolerability in toxicity models [4]: well tolerated
Cmax ([5]; 50 mg b.i.d., multiple dosing day 21, 50 mg b.i.d., dose escalation cohort, mean (s.d.)): 358 ng/mL
half-life ([5]; 50 mg b.i.d., multiple dosing day 21, 50 mg b.i.d., dose escalation cohort, mean (s.d.), read-out: t1/2 (converted)): 7.49 h
Tmax ([5]; 50 mg b.i.d., multiple dosing day 21, 50 mg b.i.d., dose escalation cohort): 2.05 h
Cmax ([5]; 50 mg q.d., multiple dosing day 21, 50 mg q.d., dose escalation cohort, mean (s.d.)): 260 ng/mL
half-life ([5]; 50 mg q.d., multiple dosing day 21, 50 mg q.d., dose escalation cohort, mean (s.d.), read-out: t1/2 (converted)): 8.69 h
Tmax ([5]; 50 mg q.d., multiple dosing day 21, 50 mg q.d., dose escalation cohort): 2 h
AUC(0-inf) [5, 10]: 1970 ng·h/mL
Cmax [5, 10]: 234 ng/mL
half-life ([5]; 50 mg, single dosing, 50 mg b.i.d., dose escalation cohort, mean (s.d.), read-out: t1/2 (converted)): 6.45 h
Tmax ([5]; 50 mg, single dosing, 50 mg b.i.d., dose escalation cohort): 1 h
AUC(0-inf) [5, 11]: 1730 ng·h/mL
Cmax [5, 11]: 214 ng/mL
half-life ([5]; 50 mg, single dosing, 50 mg q.d., dose escalation cohort, mean (s.d.), read-out: t1/2 (converted)): 7.27 h
Tmax ([5]; 50 mg, single dosing, 50 mg q.d., dose escalation cohort): 1.49 h
Cmax ([5]; 100 mg b.i.d., multiple dosing day 21, 100 mg b.i.d., dose escalation cohort, mean (s.d.)): 774 ng/mL
half-life ([5]; 100 mg b.i.d., multiple dosing day 21, 100 mg b.i.d., dose escalation cohort, mean (s.d.), read-out: t1/2 (converted)): 7.79 h
Tmax ([5]; 100 mg b.i.d., multiple dosing day 21, 100 mg b.i.d., dose escalation cohort): 2 h
AUC(0-inf) [5, 12]: 2820 ng·h/mL
Cmax [5, 12]: 379 ng/mL
half-life ([5]; 100 mg, single dosing, 100 mg b.i.d., dose escalation cohort, mean (s.d.), read-out: t1/2 (converted)): 9.43 h
Tmax ([5]; 100 mg, single dosing, 100 mg b.i.d., dose escalation cohort): 2 h
Cmax ([5]; 200 mg b.i.d., multiple dosing day 21, 200 mg b.i.d., dose escalation cohort, mean (s.d.)): 2420 ng/mL
half-life ([5]; 200 mg b.i.d., multiple dosing day 21, 200 mg b.i.d., dose escalation cohort, mean (s.d.), read-out: t1/2 (converted)): 6.95 h
Tmax ([5]; 200 mg b.i.d., multiple dosing day 21, 200 mg b.i.d., dose escalation cohort): 2 h
AUC(0-inf) [5, 13]: 9530 ng·h/mL
Cmax [5, 13]: 965 ng/mL
half-life ([5]; 200 mg, single dosing, 200 mg b.i.d., dose escalation cohort, mean (s.d.), read-out: t1/2 (converted)): 6.57 h
Tmax ([5]; 200 mg, single dosing, 200 mg b.i.d., dose escalation cohort): 2.48 h
Cmax ([5]; 300 mg b.i.d., multiple dosing day 21, 300 mg b.i.d., dose escalation cohort, mean (s.d.)): 3700 ng/mL
half-life ([5]; 300 mg b.i.d., multiple dosing day 21, 300 mg b.i.d., dose escalation cohort, mean (s.d.), read-out: t1/2 (converted)): 8.25 h
Tmax ([5]; 300 mg b.i.d., multiple dosing day 21, 300 mg b.i.d., dose escalation cohort): 2 h
Cmax ([5]; 300 mg, multiple dosing day 28, 300 mg b.i.d., repeated administration cohort, mean (s.d.)): 2810 ng/mL
half-life ([5]; 300 mg, multiple dosing day 28, 300 mg b.i.d., repeated administration cohort, mean (s.d.), read-out: t1/2 (converted)): 11.1 h
Tmax ([5]; 300 mg, multiple dosing day 28, 300 mg b.i.d., repeated administration cohort): 2.97 h
Cmax ([5]; 300 mg, single dosing, 300 mg b.i.d., dose escalation cohort, mean (s.d.)): 1350 ng/mL
half-life ([5]; 300 mg, single dosing, 300 mg b.i.d., dose escalation cohort, mean (s.d.), read-out: t1/2 (converted)): 7.5 h
Tmax ([5]; 300 mg, single dosing, 300 mg b.i.d., dose escalation cohort): 2 h
AUC(0-inf) [5, 14]: 9210 ng·h/mL
Cmax [5, 14]: 983 ng/mL
half-life ([5]; 300 mg, single dosing, 300 mg b.i.d., repeated administration cohort, mean (s.d.), read-out: t1/2 (converted)): 6.1 h
Tmax ([5]; 300 mg, single dosing, 300 mg b.i.d., repeated administration cohort): 2.03 h
half-life ([5]; at all doses, single dose, read-out: estimated terminal-phase half-life (t1/2)): 6 to 9 h
AUC ([5]; multiple dosing day 21, 50 mg b.i.d., dose escalation cohort, mean (s.d.)): 2720 ng·h/mL
AUC ([5]; multiple dosing day 21, 50 mg q.d., dose escalation cohort, mean (s.d.)): 2210 ng·h/mL
AUC ([5]; multiple dosing day 21, 100 mg b.i.d., dose escalation cohort, mean (s.d.)): 6090 ng·h/mL
IC50 [6]: 17 nM
disease control rate ([7]; 1 of 26 patients): 3.8%
objective response rate ([7]; 1 of 26 patients): 3.8%
median time to tumour progression ([7]; 26 patients): 58 days
patients showing reduction in tumour size ([7]; dose escalation cohort): one
patients achieving partial response (PR), percent ([7]; of 26 patients): 3.8%
patients achieving partial response (PR), number ([7]; parotid cancer, 300 mg b.i.d.): One
patients showing reduction in tumour size ([7]; repeated administration cohort, of six patients): three
xenograft growth [8]: effectively inhibited xenograft growth
circulating tumour cell (CTC) changes after treatment ([9]; screening versus cycle 1 day 15): did not show significant changes
patients with unfavourable baseline CTC count converted to favourable ([9]; seven patients with ⩾5 cells per 7.5 ml blood at baseline): none

From article PMC3322948, “Phase I first-in-human study of TAK-285, a novel investigational dual HER2/EGFR inhibitor, in cancer patients” (British Journal of Cancer, 2012)
